Data set [1] can be described thus: Pharmacokinetics in rats after IV and PO administration. In kind it is in vivo, male Sprague–Dawley rats. As to the method:
Animal studies were conducted using established procedures in accordance with the Australian Code of Practice for the Care and Use of Animals for Scientific Purposes, and the study protocols were reviewed and approved by the Monash Institute of Pharmaceutical Sciences Animal Ethics Committee. The study was conducted in overnight-fasted male Sprague–Dawley rats weighing 266–292 g. Rats had access to water ad libitum throughout the pre- and postdose sampling period, and access to food was reinstated 4 h postdose. Compound 1 was administered intravenously as a 10 min constant rate infusion via an indwelling jugular vein cannula (1 mL per rat, n = 5 rats) and orally by gavage (10 mL/kg per rat, n = 2–3 rats), and samples of arterial blood and total urine were collected up to 24 h postdose. Arterial blood was collected directly into borosilicate vials (at 4 °C) containing heparin. Blood samples were centrifuged, and the supernatant plasma was removed and stored frozen (−80 °C) until analysis by LC-MS. Plasma samples and calibration standards (prepared in blank rat plasma) were processed by protein precipitation with a 2-fold volume of acetonitrile. LC-MS analysis was conducted using a Waters Micromass Quattro Premier triple-quadrupole mass spectrometer coupled to a Waters Acquity UPLC with a Phenomenex C18 Kinetex column (50 × 2.1 mm, 2.7 μm). Elution was achieved using a methanol–water gradient (containing 8.2 mM formic acid and 1.25 mM ammonium formate) with a flow rate of 0.6 mL/min, a gradient cycle time of 6 min, and an injection volume of 2 μL. MS detection was conducted using positive electrospray ionization with multiple reaction monitoring. Transitions (m/z), cone voltages (V), and CID voltages (V) were as follows: 1, 430.26 > 99.93, 40, 20; 2, 416.27 > 99.80, 30, 20; 3, 402.22 > 99.93, 35, 20; 4, 388.23 > 99.86, 35, 20; 5: 374.25 > 72.01, 35, 25; diazepam (285.25 > […], 40, 25) (used as an internal standard). The quantitation range in plasma was typically 1–10000 ng/mL, and the accuracy and precision were within ±10% and <10%, respectively, for each analyte. Urine samples were analyzed using either a 20- or 200-fold dilution with 50% acetonitrile and assayed against calibration standards prepared in the same solvent.

The subject of data set [2] is P. vivax liver-stage parasites. Description: P. vivax liver-stage in vitro assay, prophylactic mode. It counts as cell-based, Plasmodium vivax. The conditions noted are these: 20 μM, two independent runs, threshold for activity 75% inhibition. As to the method: Compound 1 and its metabolites were tested in both prophylactic and radical cure modes for activity against P. vivax liver-stage parasites.[16],[17] In the prophylactic assay, compounds are added the day after sporozoite invasion into hepatocytes in order to characterize the compound activity against established liver forms with a parasitophorous vacuole membrane (as opposed to activity on preinvasion sporozoites) and prior to complete maturation of hypnozoites into drug-insensitive dormant forms, which appear at about 5 days postinvasion.[18] In the radical cure assay, compounds are added at day 5 postinfection to characterize activity against late-stage schizonts and mature PI4K inhibitor-insensitive hypnozoites.[19] In these experiments, the threshold for activity is 75% inhibition. […] Similarly, as previously described,[20] 10 μM concentrations of 1 and its metabolites were also tested for activity against P. cynomolgi schizont (large forms) and hypnozoite (small forms) liver-stage parasites cultured in rhesus monkey hepatocytes. In these experiments, the threshold for activity is 50% inhibition.
Compounds were prepared as 20 mM stock solutions in DMSO and tested in an eight-point semilog (1/3) dilution series from 20 μM in 384-well assay plates in both prophylactic and radical cure mode against P. vivax liver-stage parasites as previously described.[16] Following ethical approval from the Institutional Ethics Committee of the Thai Ministry of Public Health, the Ethical Review Committee of Faculty of Tropical Medicine, Mahidol University (TMEC 11-008 and 14-016), the Oxford Tropical Medicine Ethical Committee, Oxford University, England (OxTREC 17-11 and 40–14), and the Cambodian National Ethics Committee for Health Research (101NECHR), isolates of P. vivax infected blood were collected from patent volunteers in Tak province, Thailandm and Mondulkiri province, Cambodia. Samples were collected by venipuncture into heparin tubes prior to replacement of patient serum with nonimmune AB human serum and feeding to laboratory-reared Anopheles dirus cracens or An. dirus A mosquitoes via water-jacket artificial membrane feeders or the Hemotek insect feeding system (Hemotek, Blackburn, UK) set to maintain the bloodmeal temperature at 37 °C. […] Cryopreserved human hepatocytes (BioIVT, Baltimore, Maryland, USA) were thawed into InVitroGro CP Medium (BioIVT), quantified for viability by trypan blue dye exclusion, diluted to 800–1000 live cells per microliter, and 18000 live cells were plated into each well of a collagen-coated 384-well plate (Greiner, Monroe, NC, USA) by a 16-channel pipet (Finnpipette, Thermo Fisher Scientific, Waltham, MA). […]

For data set [3], the system named is P. falciparum (NF54 clone). Description: Blood stage activity against cultured P. falciparum. It counts as cell-based, Plasmodium falciparum. The conditions noted are these: concentration up to 15 μM.
Data set [4] has as its system P. vivax. Also on record: method as in doi:10.1016/0035-9203(74)90194-1. The conditions noted are these: 7-day course at 10 mg/(kg day); cited from earlier work.
The mark [5] stands for this setting: PO, 11 mg/kg, individual values n = 2.
The mark [6] stands for this setting: male, Sprague-Dawley, rat, plasma, po, 27 mg/kg.

Molecules are shown by their SMILES. Several values for one entry are separate records, joined by “and”; a condition that tells them apart may be missing. Identical values can stand only once. Like-named read-outs stand apart in the source and are kept apart here.

A word on the Cmax: it is the peak of the concentration-time curve. As usually defined, the half-life is the time in which the quantity being followed falls by half. As usually defined, the bioavailability is the share of a dose that reaches the circulation, judged against a reference dose that is usually intravenous. A high value points to good availability. Turning to `CCN(CC)CCN(CCN(CC)CC)c1cc(OC)c(OC)cc1Br` [Compound 1, 4-(2-bromo-4,5-dimethoxyphenyl)-1,1,7,7-tetraethyldiethylenetriamine], the “dose excreted in urine as parent” value in data set [1] (IV, 3 mg/kg, individual values) was 9.2% and 10.7%. The Cmax in data set [1] (setting [5]) stood at 50 nM; in data set [1] (male, Sprague-Dawley, rat, plasma, po, 11 mg/kg, individual values n = 2), 70 nM; in data set [1] (setting [6]), 310 ± 30 nM. For the same compound, the Tmax was 0.8 h in data set [1] (setting [5]); 1 h in data set [1] (male, Sprague-Dawley, rat, plasma, po, 11 mg/kg, PO, 11 mg/kg, individual values n = 2, read-out: Tmax); 1 h in data set [1] (male, Sprague-Dawley, rat, plasma, po, 27 mg/kg, PO, 27 mg/kg, read-out: Tmax); ~1 h in data set [1] (male, Sprague-Dawley, rat, plasma, po, oral administration, read-out: time of maximum plasma concentrations postdose). The plasma half-life in data set [1] (setting [5]) came to 6.1 h. Besides, the half-life in data set [1] (male, Sprague-Dawley, rat, plasma, intravenous and oral, after IV and PO administration, read-out: terminal half-life) was 5 to 7 h; in data set [1] (male, Sprague-Dawley, rat, plasma, iv, 3 mg/kg, IV, 3 mg/kg, n = 5, read-out: plasma half-life (converted)) it was 7 ± 1.3 h; in data set [1] (male, Sprague-Dawley, rat, plasma, po, 11 mg/kg, PO, 11 mg/kg, individual values n = 2, read-out: plasma half-life (converted)), 4.9 h; in data set [1] (male, Sprague-Dawley, rat, plasma, po, 27 mg/kg, PO, 27 mg/kg, n = 3, read-out: plasma half-life (converted)), 7.4 ± 1.3 h. The clearance in data set [1] (male, Sprague-Dawley, rat, plasma, iv, 3 mg/kg) stood at 147 ± 33 mL/min/kg. In addition, in data set [1] (male, Sprague-Dawley, rat, plasma, iv, 3 mg/kg, read-out: plasma volume of distribution), the Vd worked out at 51 ± 10 L/kg. The bioavailability in data set [1] (male, Sprague-Dawley, rat, plasma, po, 11 mg/kg) is ~16%; in data set [1] (setting [6]), ~27%. In data set [1] (male, Sprague-Dawley, whole blood and plasma, 3 mg/kg, rat, IV column), the blood plasma ratio worked out at 2.1. Moreover, the “renal elimination as share of overall in vivo clearance” value in data set [1] (rat) is reported as “approximately 10%”. Besides, the “activity against schizonts or hypnozoites” value in data set [2] was “no activity”. The blood stage activity result in data set [3] is “no blood stage activity”. The “prevention of infections / inhibition of relapses of P. vivax” value in data set [4] is “did not prevent infections or inhibit relapses”. Further, the tolerability entry in data set [4] was “well-tolerated”.

The record behind these values is PMC9016807, “Metabolic, Pharmacokinetic, and Activity Profile of the Liver Stage Antimalarial (RC-12)” (ACS Omega, 2022).
